Literature values, collected in patent US8778840B2, “Soluble liquid formulations of quinclorac ammonium salts” (BASF SE, priority 2007, dated 2014).

Conditions: pH 7 at 20° C.

Structure (SMILES): O=C(O)c1c(Cl)ccc2cc(Cl)cnc12 [Quinclorac, 3,7-dichloro-8-quinolinecarboxylic acid]
- solubility in water: 0.065 mg/kg
